The test system of one assay is female CRL:CD rats. In words: Bone densitometry (pQCT) of right femur in rats. It is filed as in vivo, rat. To be noted: oral once a day, 14 consecutive days, 15 mg/kg. On the procedure: For in vitro osteogenesis, human adipose-derived stem cells (hADSC) (Invitrogen, UK; catalogue number R7788-115) were seeded into 12-well plates at a density of 5000 cells/cm^2 and were cultured in a basal media of phenol red-free Dulbecco's Modified Eagles Medium (DMEM; Sigma-Aldrich, UK; catalogue number D1145) supplemented with 5% fetal bovine serum (FBS, Gibco, UK; catalogue number 10270) and 2 mM GlutaMax® (Gibco; catalogue number 35050). […] The formation of mineralized bone nodules was assessed during the time-course using Alizarin Red S staining. […] The amount of mineralisation was quantified through the extraction of the Alizarin Red S stain from bone nodules using a cetylpyridinium chloride extraction method, previously described (Gregory et al., Analytical Biochemistry, 2004, 329: 77-84; Hwang et al., Stem Cells and Development 17: 963-970, 2008). […] Following incubation, 200 μl aliquots were transferred to 96-well format and the absorbance at 550 nm was determined using a microplate spectrophotometer (SpectraMax Plus, Molecular Devices, USA). Data were expressed as mean absorbance at 550 nm±Standard error of mean (SEM). […] Data are shown as mean absorbance at 550 nm and analysed using one-way ANOVA followed by Tukey's multiple comparison post hoc test: n=9; ***, P<0.001. […]

Assay [1] relates to Female Sprague Dawley rats. In words: Increased bone formation in rats: femur histopathology. In kind it is in vivo. Particulars: rat, oral. The method, then:
For in vitro osteogenesis, human adipose-derived stem cells (hADSC) (Invitrogen, UK; catalogue number R7788-115) were seeded into 12-well plates at a density of 5000 cells/cm^2 and were cultured in a basal media of phenol red-free Dulbecco's Modified Eagles Medium (DMEM; Sigma-Aldrich, UK; catalogue number D1145) supplemented with 5% fetal bovine serum (FBS, Gibco, UK; catalogue number 10270) and 2 mM GlutaMax® (Gibco; catalogue number 35050). […] In osteogenic positive control wells, basal media was replaced with a differentiation media; phenol red-free DMEM supplemented with 5% FBS, 2 mM GlutaMax®, 50 μg/ml L-ascorbic acid (Sigma-Aldrich; Catalogue no. A8960), 5 mM β-glycerophosphate (Calbiochem, UK; catalogue number 35675), and 10 nM dexamethasone (Sigma-Aldrich; catalogue number D4902). The cultures were incubated at 37° C. in 5% CO2 with media and compound was replaced every 3-4 days over a time-course of 24 days. The formation of mineralized bone nodules was assessed during the time-course using Alizarin Red S staining. At numerous times throughout the time-course, cells were fixed with 4% paraformaldehyde (Sigma-Aldrich; catalogue number P6148) for 20 min, followed by three washes with phosphate buffered saline (PBS), without calcium chloride and magnesium chloride, (Sigma-Aldrich; catalogue number D8537), before being stained with 40 mM Alizarin Red S (Sigma-Aldrich; catalogue number A5533) (pH4.2) for 20 min at room temperature. Plates were placed on a rocking platform (50 rpm) during staining After staining, cells were washed three times with PBS, and three times with water. Cells were imaged using a Leica M165FC stereomicroscope and associated Leica Application Suite imaging software (Leica Microsystems, UK). The amount of mineralisation was quantified through the extraction of the Alizarin Red S stain from bone nodules using a cetylpyridinium chloride extraction method, previously described (Gregory et al., Analytical Biochemistry, 2004, 329: 77-84; Hwang et al., Stem Cells and Development 17: 963-970, 2008). Briefly, Alizarin Red S stain was extracted from bone nodules through the addition of 1 ml, to each well, of a cetylpyridium chloride buffer consisting of 10% cetylpyridium chloride (Sigma-Aldrich; catalogue number C0732) in 10 mM Na3PO4 (Sigma-Aldrich; catalogue number 342483) (pH7.0) and incubation for 1 h at 37° C. Following incubation, 200 μl aliquots were transferred to 96-well format and the absorbance at 550 nm was determined using a microplate spectrophotometer (SpectraMax Plus, Molecular Devices, USA). Data were expressed as mean absorbance at 550 nm±Standard error of mean (SEM). Differences between groups were examined for statistical significance using one-way analysis of variance (ANOVA) followed by Tukey's multiple comparison post hoc test. P<0.05 was considered significant. […] Experiments were performed in triplicate. […] Data are shown as mean absorbance at 550 nm and analysed using one-way ANOVA followed by Tukey's multiple comparison post hoc test: n=9; ***, P<0.001. […] Female Sprague Dawley rats (Charles River CRL:CD rats, Deal, Margate, UK) aged between 12 and 16 weeks (230-340 g) were dosed with either compound or vehicle with a 5 mL/kg volume administered by oral gavage using straight steel (75 mm, 16 gauge) oral gavage feeding needles (Vet-Tech Solutions Ltd, Congleton, UK) between 7 and 10 am each day. Compound or vehicle was dosed at various doses (including 2.5, 5, 15 or 50 mg/kg/day freebase doses equivalent to 3, 6, 18 and 59 mg/kg of tri-hydrochloride salt) once a day for seven to fourteen days. In some studies a serum sample was taken prior to treatment to measure baseline serum bone biomarkers following overnight fasting. Blood was sampled from the tail vein and serum prepared by adding the blood to serum gel blood collection tubes (Microvette 500 Z-gel, catalogue number 20.1344, Sarstedt, Leicester, UK) and centrifuging the tubes for at 13000 rpm for 5 min at 4° C. […]

Where a name gives a salt, the structure may show the parent alone.

For the molecule `COCCCNCCCc1ccc(-c2cnc(N)c(C(=O)Nc3cccnc3)n2)cc1` [Example 1, 3-Amino-6-(4-{3-[(3-methoxypropyl)amino]propyl}phenyl)-N-pyridin-3-ylpyrazine-2-carboxamide tri-hydrochloride], in the assay on female CRL:CD rats, the “Increase in right femur metaphysis total BMD compared with vehicle treated rats” value worked out at 6.6% and the “Total BMD in femur (mean±SEM)” value amounted to 814.41 ± 15 mg/mL. In assay [1] (5 mg/kg, 7 or 14 days, vs vehicle), the “Histopathology, morphology in the femur” value is “no differences in morphology in the femur”. In assay [1] (15 mg/kg, 14 days), the “Focal bone masses in the sub-chondral region” value is given as 2 out of 10; the “Histopathology, bone formation in femur” value was “evidence of bone formation in both the sub-chondral region and cortical region”. In assay [1] (50 mg/kg, 7 days), the “Histopathology, bone marrow” value is “histological evidence of bone marrow cell mobilization and differentiation”; the “Histopathology, cancellous bone compartment” value is listed as “evidence of increased bone within the cancellous bone compartment”. For the same molecule, the “Histopathology, bone changes in femur” value in assay [1] (50 mg/kg, 14 days) was “broader range of bone changes suggestive of bone formation”. Besides, in assay [1] (15 and 50 mg/kg, 7 days), the “Histopathology, osteoblast hypertrophy” value is recorded as “evidence of osteoblast hypertrophy”; the “Histopathology, osteoid and bone in femur” value is “dose related changes of increased osteoid and bone in both the sub-chondral region and in the cortical bone in the shaft”.

The values are drawn from patent publication US8198285B2, “Pyrazine derivatives” (Astrazeneca AB, priority 2010, dated 2012).
